Measurements reported in patent publication US20240277729A1, “METHODS OF TREATMENT AND PHARMACEUTICAL COMPOSITIONS USING AN SGLT-2 INHIBITOR AND A NEUROLEPTIC AGENT” (Boehringer Ingelheim International GmbH, priority 2011, published 2024).
Entries after “also recorded” stand apart in the source; their conditions may differ.

Experiments:
[1] = metformin on its own, in the diabetic; cited from earlier work
Female Wistar rats = settings: neuroleptic alone; olanzapine 8 mg/kg sc, clozapine 8 mg/kg sc, haloperidol 4 mg/kg ip; oral glucose load 2 g/kg; FIG. 1A
Method: Female Wistar rats (weight range 250-300 g upon arrival) are obtained from Janvier (Le Genest Saint Isle-France, France) and housed in pairs or three together at a temperature of 21±4° C. and 55±20% humidity. The animals are maintained on a reverse phase light-dark cycle (lights off for 8 h from 09.30-17.30 h) during which time the room is illuminated by red light. The animals are housed and have free access to a fat diet and tap water until the night before the oral glucose tolerance test (OGTT) experiment.
An oral glucose tolerance test is performed in overnight fasted animals. A pre-dose blood sample (t0-90 min) is obtained by tail bleed. Blood glucose is measured with a glucometer, and the animals are randomized for blood glucose (n=8/group). Subsequently, the groups receive a single oral administration of either vehicle or a neuroleptic agent in the presence or absence of an SGLT-2 inhibitor. The animals receive an oral glucose load (2 g/kg) 60 min after compound administration. Blood glucose is measured in tail blood 15 min, 30 min, 60 min, 120 min, and 180 min after the glucose challenge. Glucose excursion is quantified by calculating the reactive glucose AUC. The data are presented as mean±SEM.

| SMILES | average improvement in the HbA1c value [1] | glucose tolerance in OGTT (Female Wistar rats) |
| --- | --- | --- |
| CN(C)C(=N)N=C(N)N [metformin] | 1.0-1.5% | – |
| O=C(CCCN1CCC(O)(c2ccc(Cl)cc2)CC1)c1ccc(F)cc1 [haloperidol, 4-[4-(4-chlorophenyl)-4-hydroxy-1-piperidyl]-1-(4-fluorophenyl)-butan-1-one] | – | impaired glucose tolerance; also recorded: worsening of the OGTT was less pronounced |
| CN1CCN(C2=Nc3cc(Cl)ccc3Nc3ccccc32)CC1 [Clozapine, 8-chloro-11-(4-methylpiperazin-1-yl)-5H-dibenzo[b,e][1,4]diazepine] | – | impaired glucose tolerance |
